Test results as given in PMC8327158, “PEGylated AdipoRon derivatives improve glucose and lipid metabolism under insulinopenic and high-fat diet conditions” (Journal of Lipid Research, 2021).

System: HFD-fed mice
Test: qPCR gene expression in pancreas, BAT and scWAT of HFD mice
Format: in vivo, mouse
Experimental: Total RNA was extracted with the RNeasy Mini kit (Qiagen #74106) for the pancreas or Trizol (Invitrogen #15596018) for the liver and adipose tissue. cDNA was synthesized with iScript cDNA Synthesis Kit (Bio-Rad #170-8891). Quantitative real-time PCR (qPCR) was performed with the Powerup SYBR Green PCR master mix (Applied Biosystems # A25742) on Quantistudio 6 Flex Real-Time PCR System (Applied Biosystems #4485694). Primer sequences for qPCR are listed in supplemental Table S2.
Six-week-old wild-type male mice were fed HFD for 4 weeks or 7 months In total, 5 mg/Kg of PBS, Adiporon, AdipoRonPEG5, AdipoRonPEG6HTL were injected twice a day for 5 days. After 5 days of treatment, systemic test is performed, and serum (Before and after treatment), subcutaneous, epididymal, liver, heart samples were harvested for qPCR and sphingolipid analysis.

## O=C(COc1ccc(C(=O)c2ccccc2)cc1)NC1CCN(Cc2ccc(OCCOCCOCCOCCOCCO)cc2)CC1 [AdipoRonPEG5]
BAT
  Cpt-1a expression: increased expression
  Prdm16 expression: significant upregulation
Subcutaneous adipose tissue
  fibrosis-related genes (Col1a1, Col3a1, Fn1) and Tgfb1: lowered
Whole pancreas lysate
  genes maintaining the functional state of pancreatic β-cells: did not detect a significant upregulation
